Data: patent publication US20200354327A1, “COMPOUND HAVING STAT3 INHIBITORY ACTIVITY AND USE THEREOF” (CYTUS H&B CO., LTD., priority 2017, published 2020)

Tested on: U87-MG cells
Assay: Matrigel invasion assay, U87-MG
Assay type: cell-based, human
Conditions: 24 hours, versus DMSO
Experimental: The growth factor-reduced Matrigel was diluted with a serum-free culture solution at a 1:3 ratio, transferred to a 24-well plate, and solidified at 37° C. for 5 hours. The cells were placed in a culture solution containing 1% serum and added to the solidified Matrigel, 600 μl of a culture solution containing 10% serum to which fibronectin was added at a concentration of […] was added thereto, and the cells were cultured for 24 hours. Thereafter, the cells were fixed and stained by adding Diffquick solution thereto and then observed under a Leica Application Suite microscope, and images were taken.

Clc1ccc(OCc2noc(C(Cl)(Cl)Cl)n2)c(Cl)c1 [ODZ10117, 3-(2,4-dichloro-phenoxymethyl)-5-trichloromethyl-[1,2,4]oxadiazole]
cell invasion: significantly decreased cell invasion in both the two cell lines
